# Patent publication EP2719375A1, “Cannabinoids for the treatment of cancers dependent on hedgehog mechanisms” (Max-Planck-Gesellschaft zur Förderung der Wissenschaften …, priority 2012, dated 2014)
# “Also recorded” adds a separate entry of the source. Where two headings read alike, the source gives them in different places.
# Experiments:
# Ci155 = assay: Drosophila wing disc assay, Ci155 staining; conditions: LppRNAi wing discs, DOPC liposomes, 2 hours
# Method: (§1) Imaginal discs were fixed and stained as previously described (Marois et al., 2006). Antibodies were diluted as follows: anti-Ci 2A1 1:10 (Wang and Holmgren, Development, 126(22): p. 5097-106 (1999)), anti-Smo 1:50 (Lum et al., Mol Cell, 12(5): p. 1261-74 (2003)).
# (§2) All quantified immunostaining was performed on discs that were dissected, fixed, stained and imaged in parallel using the same microscope settings. To quantify Ci155 and Smo staining intensities, three apical sections 0.7 µm apart were projected using maximal intensity in ImageJ. For each image, two rectangles of 100 pixels parallel to the A/P axis by 351 pixels parallel to the D/V axis were selected and centered at the A/P boundary in ventral and dorsal compartments. Average pixel intensity was determined as a function of distance from A/P boundary using PlotProfile and plotted using Microsoft Excel. All A/P boundaries were determined according to anti-Ci155 coimmunostaining. To estimate the significance of changes in staining intensities in discs of different genotypes, we measured Smo or Ci staining intensity at the same distance from the A/P boundary in each disc and calculated p values using Excel.
# (§3) The assay was performed as previously described (Khaliullina et al., Development, 136(24): p. 4111-21 (2009)). Endocannabinoids were applied in DOPC vesicles at concentrations of up to 200µM.
# [1] = tested on: Shh signaling in ShhLIGHT2 cells; assay: ShhLIGHT2 signaling assay (Gli-responsive Firefly:Renilla luciferase ratio); type: cell-based, mammalian; conditions: for inhibits Shh signaling: at 30µM; for effect on signaling in ShhLIGHT2 cells (pure compounds, column fractions): cells stimulated with non-lipoprotein-associated Shh
# Method: HeLa cells were passaged in DMEM with 10% fetal bovine serum (FBS, Gibco), 50 U/ml penicillin and 50µg/ml streptomycin (Gibco). To prepare non-lipoprotein-associated Shh, HeLa cells were transfected with plasmids encoding human Shh using polyethylenimine (Polysciences) in OptiMem (Invitrogen), then switched Shh-transfected HeLa cells to serum-free media (DMEM +1% Insulin-Transferrin-Selenium mixture (ITS-X, Gibco) 4 h post transfection. After 48 h, conditioned media were centrifuged at 1000 g for 20 min and concentrated using Amicon Ultra -10K (Millipore) for use in the signaling assay. Identically treated media from nontransfected HeLa cells were used as controls.
# Shh-LIGHT2 cells (Taipale et al., 2000) were maintained in DMEM + 10% FBS, 150 µg/ml zeocin (Invitrogen) and 400 µg/ml G418 (Invitrogen). 24 h prior to assay, cells were plated at […] in 96-well plates. Cells were then switched to a serum-free medium consisting of DMEM + 1% ITS-X, and supplemented with combinations of Shh and different lipids. Lipids were added in DMSO. Luciferase activity was assayed in cell lysates after 24 h, as instructed by the manufacturer (Dual Glo Luciferase Assay, Promega).
# Smo = biological target: T1, Smo (Drosophila melanogaster, UniProt P91682); assay: Drosophila wing disc assay, Smo staining; conditions: for ectopic Smo accumulation / stabilization: LppRNAi wing discs, DOPC liposomes, 2 hours; for effects on Hh signaling in Drosophila: wing discs, judged from Smo and Ci155 accumulation
# T1 construct: from tissue; host or cells: explanted wing imaginal discs from wild type and LppRNAi Drosophila larvae
# T1 sequence (P91682 32-1036): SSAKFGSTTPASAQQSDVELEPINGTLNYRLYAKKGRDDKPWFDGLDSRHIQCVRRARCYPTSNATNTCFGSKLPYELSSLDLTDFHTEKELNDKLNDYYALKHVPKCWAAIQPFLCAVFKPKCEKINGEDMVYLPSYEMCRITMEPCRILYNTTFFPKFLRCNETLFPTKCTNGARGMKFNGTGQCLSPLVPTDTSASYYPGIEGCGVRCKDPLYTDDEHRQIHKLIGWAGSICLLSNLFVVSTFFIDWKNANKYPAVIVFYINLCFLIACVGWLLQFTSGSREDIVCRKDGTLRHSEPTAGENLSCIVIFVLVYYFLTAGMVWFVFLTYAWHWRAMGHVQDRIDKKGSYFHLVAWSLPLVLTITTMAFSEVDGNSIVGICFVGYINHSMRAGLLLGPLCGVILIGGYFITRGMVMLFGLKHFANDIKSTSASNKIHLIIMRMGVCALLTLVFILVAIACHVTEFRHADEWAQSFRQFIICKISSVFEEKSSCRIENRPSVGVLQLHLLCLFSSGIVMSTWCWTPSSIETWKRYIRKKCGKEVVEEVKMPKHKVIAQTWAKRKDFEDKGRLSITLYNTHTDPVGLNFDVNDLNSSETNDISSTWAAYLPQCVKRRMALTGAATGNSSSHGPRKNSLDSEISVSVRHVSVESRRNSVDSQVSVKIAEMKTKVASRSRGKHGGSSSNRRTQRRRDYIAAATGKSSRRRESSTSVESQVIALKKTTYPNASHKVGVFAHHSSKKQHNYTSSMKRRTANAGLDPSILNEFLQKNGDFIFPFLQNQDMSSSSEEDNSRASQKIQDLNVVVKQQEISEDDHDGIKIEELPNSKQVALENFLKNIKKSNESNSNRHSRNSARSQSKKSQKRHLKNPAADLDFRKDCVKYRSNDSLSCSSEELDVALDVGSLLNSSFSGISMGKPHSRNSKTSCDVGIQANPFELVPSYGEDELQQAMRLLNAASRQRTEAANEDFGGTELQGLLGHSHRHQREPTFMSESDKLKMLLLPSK
# Method: as §1, §2, §3
# [2] = Shh Light2, ShhLIGHT2 cells stimulated with Shh, serum-free medium, lipid added in DMSO, luciferase after 24 h, read-out: EC50 (inhibits Shh signaling)
# [3] = Shh Light2, 24 h, read-out: EC50 (inhibits Shh signaling)
smiles,measurement,setting,value
"CCCCC/C=C\C/C=C\C/C=C\C/C=C\CCCCOC(CO)CO [2-glyceryl ether (20:4), 2-arachidonyl glyceryl ether]",ectopic Ci155 accumulation,Ci155,no activity
same,EC50,[1]; [2],15 µM
same,inhibits Shh signaling,[1],almost completely
same,ectopic Smo accumulation / stabilization,Smo,no activity
same,effects on Hh signaling in Drosophila,Smo,complete inactivity
"CC(C)CCC[C@@H](C)[C@H]1CC[C@H]2C3=CC=C4C[C@@H](O)CC[C@]4(C)[C@H]3CC[C@]12C [7-dehydrocholesterol, reference compound]","effect on signaling in ShhLIGHT2 cells (pure compounds, column fractions)",[1],inhibited signaling
same,ectopic Smo accumulation / stabilization,Smo,neither reversed Smo accumulation
CCCCCCCCCCCCCCCC(=O)NCCc1ccc(O)c(O)c1 [N-acyl dopamine (16:0)],ectopic Ci155 accumulation,Ci155,no activity
same,ectopic Smo accumulation / stabilization,Smo,no activity
CCCCCCCCCCCCCCCCCC(=O)NCCc1ccc(O)c(O)c1 [N-acyl dopamine (18:0)],EC50,[1]; [3],5 µM
same,inhibition at 30 µM,"[1]; Shh Light2, read-out: inhibits Shh signaling by",80%
CCCCCCCCCCCCCCCC(=O)NC(CO)C(=O)O (centres unmarked) [N-acyl serine (16:0)],ectopic Ci155 accumulation,Ci155,no activity
same,EC50,"[1]; Shh Light2, ShhLIGHT2 cells stimulated with Shh, serum-free medium, lipid added in DMSO, read-out: EC50 (increases Shh signaling)",0.5 µM
same,increases Shh signaling by,[1]; Shh-induced Firefly:Renilla increase normalized to 100,40%
same,"effect on signaling in ShhLIGHT2 cells (pure compounds, column fractions)",[1],stimulated signaling
same,ectopic Smo accumulation / stabilization,Smo,no activity
CCCCCCCCCCCCCCCC(=O)NCCO [N-acylethanolamide (16:0)],ectopic Ci155 accumulation,Ci155,partially reverses Ci155 accumulation; also recorded: significantly reverses ectopic accumulation of Ci155
same,ectopic Smo accumulation / stabilization,Smo,reverses ectopic Smo stabilization; also recorded: completely reverses ectopic accumulation of Smo
same,effects on Hh signaling in Drosophila,Smo,strong negative effects
CCCCCCCCCCCCCCCCCC(=O)NCCO [N-acylethanolamide (18:0)],ectopic Ci155 accumulation,Ci155,not decreased
same,ectopic Smo accumulation / stabilization,Smo,not decreased
CCCCCCCC/C=C\CCCCCCCC(=O)NCCO [N-acylethanolamide (18:1)],ectopic Ci155 accumulation,Ci155,not decreased
same,ectopic Smo accumulation / stabilization,Smo,not decreased
"CCCCC/C=C\C/C=C\CCCCCCCC(=O)NCCO [N-acylethanolamide (18:2), linoleylethanolamide]",EC50 decreased by addition of FAAH inhibitor,[1],> 10 fold
same,EC50 decreased by pre-incubation with lipoproteins,[1],> 10 fold
same,EC50,[1]; [3],~15 µM
same,EC50,"[1]; Shh Light2, in presence of PF-3845, a selective FAAH inhibitor, read-out: EC50",0.5 µM
same,inhibits Shh signaling,[1],almost completely
same,EC50 decreased by pre-incubation with lipoproteins,[1]; pre-incubated with lipoproteins versus added in DMSO without prior incubation,more than 10 fold
"CCCCC/C=C\C/C=C\C/C=C\C/C=C\CCCC(=O)NCCO [N-acylethanolamide (20:4), arachidonyl ethanolamide]",ectopic Ci155 accumulation,Ci155,not decreased
same,ectopic Smo accumulation / stabilization,Smo,not decreased
C=C(C)[C@@H]1CCC(C)=C[C@H]1c1c(O)cc(CCCCC)cc1O [cannabidiol],EC50,[1]; [2],< 1 µM
CCCCCc1cc(O)c2c(c1)OC(C)(C)c1ccc(C)cc1-2 [cannabinol],EC50,[1]; [2],< 1 µM
"C=C1CC[C@H](O)C/C1=C/C=C1\CCC[C@]2(C)[C@@H]([C@H](C)CCCC(C)C)CC[C@@H]12 [vitamin D3, reference compound]","effect on signaling in ShhLIGHT2 cells (pure compounds, column fractions)",[1],inhibited signaling
same,ectopic Smo accumulation / stabilization,Smo,neither reversed Smo accumulation
